Test: T1 relaxation in human full blood
Format: physicochemical
Conditions: human full blood at 37° C.

## CC(=O)C(=O)O [[1-^13C]pyruvate, ^13C1-pyruvate]
  T1 relaxation: about 42 s

— US20120128593A1, “USE OF A MAGNETIC RESONANCE IMAGING MEDIUM COMPRISING HYPERPOLARIZED 13C PYRUVATE FOR THE DETECTION OF INFLAMMATION OR INFECTION” (priority 2010, published 2012)
